Results as given in patent US20240352145A1, “EFFICACY OF ANTI-TROP-2-SN-38 ANTIBODY DRUG CONJUGATES FOR THERAPY OF TUMORS RELAPSED/REFRACTORY TO CHECKPOINT INHIBITORS” (Immunomedics, Inc., priority 2016, published 2024).
Several values for one entry are separate records, joined by “and”; a condition that tells them apart may be missing. Equal entries are not always repeated.

Legend:
[1] = test system: metastatic epithelial tumors; experiment: Phase I trial of sacituzumab govitecan (25 patients); format: in vivo, human
Description: The trial was designed as a standard 3+3 Phase I design, starting at a dose of 8 mg/kg per injection, with dosages given weekly for 2 weeks in a 3-week treatment cycle.
Prior to the start of each infusion, most patients received acetaminophen, anti-histamines (H1 and H2 blockers), and dexamethasone. Prophylactic use of antiemetics or anti-diarrheal medications was prohibited. Therapy consisted of 2 consecutive doses given on days 1 and 8 of a 3-week treatment cycle, with the intent to allow patients to continue treatment for up to 8 cycles (i.e., 16 treatments) unless there was unacceptable toxicity or progression. Patients showing disease stabilization or response after 8 cycles could continue treatments.
The maximum tolerated dose (MTD) was judged on the patient's tolerance to the first treatment cycle.

[2] = Tolerability in Swiss-Webster mice; format: in vivo, mouse
[3] = test system: metastatic SCLC; experiment: Phase I/II, metastatic SCLC cohort; format: in vivo, human
[4] = test system: gastric cancer; experiment: Case, stage IV metastatic gastric cancer
[5] = molecular target: T1, Trop-2 (Homo sapiens, UniProt P09758); experiment: Trop-2 ELISA, human; format: binding; set-up: purchased Sino Biological, Inc. 10428-H09H
T1 sequence (P09758 27-323): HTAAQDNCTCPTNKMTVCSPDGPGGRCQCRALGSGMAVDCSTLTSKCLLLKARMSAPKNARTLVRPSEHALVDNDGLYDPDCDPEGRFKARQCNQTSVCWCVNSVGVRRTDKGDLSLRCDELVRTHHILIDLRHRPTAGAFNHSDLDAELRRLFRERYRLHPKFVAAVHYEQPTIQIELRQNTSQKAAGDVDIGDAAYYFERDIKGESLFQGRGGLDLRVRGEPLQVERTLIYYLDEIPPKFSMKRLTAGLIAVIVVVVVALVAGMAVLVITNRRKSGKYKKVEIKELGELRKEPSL
Description: Trop-2 ELISA—Recombinant human Trop-2 with a His-tag (Sino Biological, Inc., Bejing, China; Cat #10428-H09H) and recombinant mouse Trop-2 with a His-Tag (Sino Biological, Inc., Cat #50922-M08H) were plated onto Ni-NTA Hissorb strips (Qiagen GmbH Cat #35023) at 1 μg for 1 h at room temperature. The plate was washed four times with PBS-Tween (0.05%) wash buffer. Serial dilutions of hRS7 were made in 1% BSA-PBS dilution buffer to a test range of 0.1 ng/mL to 10 μg/mL. The plates were then incubated for 2 h at room temperature before being washed four times followed by the addition of a peroxidase conjugated secondary antibody (goat anti-human, Fc fragment specific; Jackson Immunoresearch Cat #109-036-098). After a 45-min incubation, the plate was washed and a substrate solution (o-phenylenediamine dihydrochloride (OPD); Sigma, Cat #P828) added to all the wells. Plates were incubated in the dark for 15 min before the reaction was stopped with 4N sulfuric acid. The plates were read at 450 nm on Biotek ELX808 plate reader. Data were analyzed and graphed using Prism GraphPad Software (v4.03) (Advanced Graphics Software, Inc.; Encinitas, CA).

[6] = update of on-going trial, 17 TNBC patients

With IMMU-132 the “Delay/adjustment 1st cycle, patients” value ([1]; 8 mg/kg, 7 patients treated) was 1, the “Dose-limiting toxicity 1st cycle, patients” value ([1]; 8 mg/kg, 7 patients treated) was 0 and the “patients with grade-3 diarrhea” value ([1]; 10 mg/kg dose level) was 1. For the same substance, the “Delay/adjustment 1st cycle, patients” value ([1]; 10 mg/kg, 6 patients treated) was 0, the “Dose-limiting toxicity 1st cycle, patients” value ([1]; 10 mg/kg, 6 patients treated) was 0 and the “Delay/adjustment 1st cycle, patients” value ([1]; 12 mg/kg, 9 patients treated) was 5. The “Dose-limiting toxicity 1st cycle, patients” value ([1]; 12 mg/kg, 9 patients treated, listed as sacituzumab govitecan) was 0/9 and 0, the “Delay/adjustment 1st cycle, patients” value ([1]; 18 mg/kg, 3 patients treated) was 2 and the “median time to progression” value ([1]; 24 patients) was 3.6 months. For the same substance, the “time to progression, range” value ([1]; 24 patients) was 1-12.8 months, the “febrile neutropenia, patients” value ([1]; 25 patients) was 2 and the “long-term survival (15-20 months)” value ([1]; 25 patients) was roughly 25%. The “patients with >30% reduction of target lesions” value ([1]; 25 patients) was 12%, the “patients with SD” value ([1]; 25 patients) was 60% and the “free SN-38 as share of total SN-38, average” value ([1]; 28 30-min serum samples from 7 patients, HPLC) was 2.91±0.91%. The infusion-related adverse events ([1]; 297 infusions over 2-3 h) was “no infusion-related adverse events”, the “adverse event possibly related to treatment” value ([1]; GC patient #9, 1 dose of 10 mg/kg) was “grade 3 febrile neutropenia” and the “progressed (PD) as best response, patients” value ([1]; RECIST 1.1) was 7. The “partial responses, patients” value ([1]; RECIST 1.1, 25 patients) was 3, the “stable disease as best response, patients” value ([1]; RECIST 1.1, 25 patients, listed as Sacituzumab govitecan) was 15 and the “stable disease as best response, patients” value ([1]; RECIST 1.1, 25 patients, listed as sacituzumab govitecan) was “Fifteen”. The tumor shrinkage ([1]; SCLC patient who failed prior topoisomerase I inhibitor therapy) was 38%, the “median time to progression” value ([1]; advanced pancreatic ductal cancer, N=7) was 2.9 months and the tumor shrinkage ([1]; colon cancer patient who failed prior topoisomerase I inhibitor therapy) was 13%. For the same substance, the “intact conjugate in trough serum samples” value ([1]; drawn immediately before next dose) was “no sacituzumab govitecan could be detected”, the “antibody response to hRS7 IgG or SN-38” value ([1]; multiple cycles for up to 12 months) was “no antibody response to the hRS7 IgG or SN-38 was detected” and the “reduction in target lesions” value ([1]; patient 10, CRC, 5 doses of 10 mg/kg) was 23%. The “maximum reduction in target lesions” value ([1]; patient 10, CRC, after 18 doses) was 28%, the “plasma CEA” value ([1]; patient 10, CRC, baseline 38.5 ng/mL) was 1.6 ng/mL and the time to progression ([1]; patient 18, TNBC) was 45 weeks. The “reduction in target lesions” value ([1]; patient 18, TNBC, after 3 doses) was 13%, the “reduction in target lesions” value ([1]; patient 18, TNBC, after 16 doses) was 19% and the period until progression ([1]; patient 20, HRPC, 34 treatments) was 12.7 months. For the same substance, the “period of SD” value ([1]; patient 25, esophageal cancer, 18 then 13.5 mg/kg) was 30 weeks, the “period of disease stabilization” value ([1]; patient #11, PDC) was 15 weeks and the CA19-9 serum titer ([1]; patient #11, PDC, 10 mg/kg, after 8 doses, baseline 5880) was 2840 units/mL. The “SN-38 bound to the IgG” value ([1]; patient #25, 13.5 mg/kg) was 96.8%, the “free SN-38, average” value ([1]; patient #25, 13.5 mg/kg) was 105.4 ± 47.7 ng/mL and the “free SN-38G as share of total SN-38+SN-38G” value ([1]; patient #25, 13.5 mg/kg) was 11.6%. For the same substance, the “free SN-38G, average” value ([1]; patient #25, 13.5 mg/kg) was 13.9 ± 4.1 ng/mL, the “total SN-38, average” value ([1]; patient #25, 13.5 mg/kg, 11 peak acid-hydrolyzed samples) was 3309.8 ± 601.8 ng/mL and the “Free SN-38G” value ([1]; patient #25, 18 mg/kg) was 26.2 ng/mL. For the same substance, the “free SN-38 (non-hydrolyzed sample)” value ([1]; patient #25, 18 mg/kg) was 155.2 ng/mL, the “free SN-38G as share of total unbound SN-38+SN-38G” value ([1]; patient #25, 18 mg/kg) was 14.4% and the “free SN-38 as share of total” value ([1]; patient #25, 18 mg/kg) was 3.0%. The “total SN-38 (acid-hydrolyzed sample)” value ([1]; patient #25, 18 mg/kg) was 5,089 ng/mL, the “SN-38G as share of free SN-38 levels in serum” value ([1]; patients) was 20-40% and the “median time to progression” value ([1]; patients with SD or PR (N=18)) was 4.1 months. For the same substance, the “time to progression, range” value ([1]; patients with SD or PR (N=18)) was 2.6-12.8 months, the “patients with response or disease stabilization” value ([1]; patients with prior topoisomerase I inhibitor) was 7 of 9 and the “SN-38 in serum bound to IgG” value ([1]; peak samples, 30 min after infusion) was greater than 96%. For the same substance, the “time to progression from onset of therapy” value (from here on “time … of therapy”) ([1]; responder with SCLC) was 2.9 months, the “time … of therapy” value ([1]; responder with TNBC) was 4.3 months and the “time … of therapy” value ([1]; responder with colon cancer) was 7.1 months. The “reduction of target lesions” value ([1]; two of nine patients with prior topoisomerase-I inhibitor therapy, listed as sacituzumab govitecan) was 28% and 38%, the “clinical benefit rate (PR+SD≥6 months)” value [1, 6] was 46% and the “overall response rate (PR)” value [1, 6] was 29%. For the same substance, the hematopoietic toxicity ([2]; 2 doses of 4, 8, 12 mg SN-38/kg) was “No hematopoietic toxicity occurred”, the “tolerability, weight loss” value ([2]; 2 doses over 3 days, each of 4, 8, and 12 mg SN-38/kg) was “minimal transient weight loss” and the “aspartate transaminase (AST)” value ([2]; mouse, in vivo) was greater than 298 U/L. The liver histology ([2]; mouse, in vivo) was “did not show histologic evidence of tissue damage”, the “mice with slightly elevated glucose” value ([2]; mouse, in vivo) was 5 of 7 and the “MTD, cumulative dose over 1 week” value ([2]; normal mice, no acute toxicity) was greater than 24 mg/kg SN-38. The “median OS” value ([3]; 8 mg/kg) was 8.1 months, the “median PFS” value ([3]; 8 mg/kg) was 2.0 months and the “median PFS” value ([3]; 10 mg/kg) was 3.6 months. The “median time to progression” value ([3]; in vivo) was 4.9 months, the tolerability ([4]; 10 mg/kg) was “some mild nausea and diarrhea” and the “disease reduction from baseline by RECIST” value ([4]; after another 5 courses) was “about 35%”.
Substance hRS7 IgG has a Kd [5] of 0.3 nM.
